In ChEMBL document CHEMBL1201862, “PubChem BioAssay data set” (2004):
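Method: 48-hour compound exposure of cells in 96-well plates, five concentrations, linear interpolation of endpoints. Here, GI50 denotes the concentration required for 50% inhibition of growth.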 Calls of active or inactive are those of the source. Cut-off read from the data, not from the text of the source: active = GI50 up to about 1.1 µM and inactive = higher.

Tests used:
Assay in all cases: NCI-60 cell line screen, 48 h
SW-620 = test system: SW-620
RPMI-8226 = test system: RPMI-8226
LOX IMVI = test system: LOX IMVI
OVCAR-5 = test system: OVCAR-5
NCI/ADR-RES = test system: NCI/ADR-RES
HCT-116 = test system: HCT-116
HT-29 = test system: HT-29
DU-145 = test system: DU-145
IGROV-1 = test system: IGROV-1
SNB-75 = test system: SNB-75
CAKI-1 = test system: CAKI-1
PC-3 = test system: PC-3
M14 = test system: M14
T47D = test system: T47D
ACHN = test system: ACHN
CCRF-CEM = test system: CCRF-CEM
TK-10 = test system: TK-10
SK-MEL-5 = test system: SK-MEL-5
A549 = test system: A549
OVCAR-4 = test system: OVCAR-4
OVCAR-8 = test system: OVCAR-8
SR = test system: SR
BT-549 = test system: BT-549
NCI-H460 = test system: NCI-H460
HL-60 = test system: HL-60
EKVX = test system: EKVX
SN12C = test system: SN12C
KM12 = test system: KM12
HOP-62 = test system: HOP-62
HCT-15 = test system: HCT-15
NCI-H226 = test system: NCI-H226
SNB-19 = test system: SNB-19
OVCAR-3 = test system: OVCAR-3
NCI-H23 = test system: NCI-H23
SF-295 = test system: SF-295
MDA-MB-231 = test system: MDA-MB-231
SK-MEL-28 = test system: SK-MEL-28
SF-539 = test system: SF-539
HOP-92 = test system: HOP-92
UO-31 = test system: UO-31
MDA-N = test system: MDA-N
UACC-257 = test system: UACC-257
786-0 = test system: 786-0
NCI-H522 = test system: NCI-H522
MDA-MB-435 = test system: MDA-MB-435
SK-OV-3 = test system: SK-OV-3
SK-MEL-2 = test system: SK-MEL-2
MOLT-4 = test system: MOLT-4
Hs-578T = test system: Hs-578T
K562 = test system: K562
Malme-3M = test system: Malme-3M
COLO 205 = test system: COLO 205
SF-268 = test system: SF-268
A498 = test system: A498
HCC 2998 = test system: HCC 2998
MCF7 = test system: MCF7
UACC-62 = test system: UACC-62
U-251 = test system: U-251

Measured: GI50

COc1ccc(/C=C2\CCCC(CN(C)C)C2=O)cc1 (stereo not drawn)
active: SW-620 891 nM | RPMI-8226 223 nM | CCRF-CEM 971 nM | SR 1020 nM | HL-60 618 nM | MOLT-4 774 nM | MCF7 638 nM
inactive: LOX IMVI 1340 nM | OVCAR-5 9080 nM | NCI/ADR-RES 2630 nM | HCT-116 1630 nM | HT-29 1750 nM | DU-145 16600 nM | IGROV-1 2690 nM | SNB-75 7450 nM | CAKI-1 1690 nM | PC-3 5740 nM | M14 1720 nM | T47D 2170 nM | ACHN 2290 nM | TK-10 3360 nM | SK-MEL-5 15300 nM | A549 17700 nM | OVCAR-4 1760 nM | OVCAR-8 3640 nM | BT-549 1920 nM | NCI-H460 21100 nM | EKVX 10200 nM | SN12C 2560 nM | KM12 1300 nM | HOP-62 17500 nM | NCI-H226 18100 nM | SNB-19 7360 nM | OVCAR-3 1940 nM | NCI-H23 7710 nM | SF-295 19100 nM | MDA-MB-231 3030 nM | SK-MEL-28 2010 nM | SF-539 14900 nM | HOP-92 4350 nM | UO-31 3630 nM | MDA-N 2960 nM | UACC-257 3260 nM | 786-0 1790 nM | NCI-H522 1370 nM | MDA-MB-435 2610 nM | SK-OV-3 9890 nM | SK-MEL-2 3360 nM | Hs-578T 3020 nM | K562 1240 nM | Malme-3M 2530 nM | COLO 205 2100 nM | SF-268 3030 nM | A498 16800 nM | HCC 2998 6710 nM | UACC-62 1950 nM | U-251 1950 nM
1240 nM: HCT-15
